Test results: patent US4738971A, “N-aryl-1,2-dihydro-4-substituted-1-alkyl-2-oxo-quinoline-3-carboxamides” (priority 1981, dated 1988)

System: carrageenan-induced edema
Experiment: carrageenan edema test in rats
Assay type: in vivo, rat (female Sprague-Dawley)
Conditions: Rattus norvegicus, po; 80 mg/kg p.o., 30 min before carrageenan; edema weight 3 h after, vs control; preliminary; read-out: Potentiation of the carrageenan edema, %
Text: Another test, in which the effect of a drug corresponds to the effects obtained in the tests mentioned above, and which can therefore also be used, is the well-established carrageenan edema test in rats (5). Comparative evaluation of compounds of the present invention in the three tests mentioned has shown that compounds which increase the extent of the delayed hypersensitivity reaction in the pertussis vaccine pleurisy test and in the adjuvant arthritis test also increase the extent of carrageenan-induced edema in the carrageenan edema test, thus providing a further tool for the determination of enhancement of cell-mediated immunity.
This example illustrates the effect of the compounds of the general formula I in the carrageenan edema test in rats.
A modification of a method described in (5) was used. Female Sprague-Dawleyrats weighing 110-120 g was used. At least 10 animals were used in each experimental group. Foot edema was induced by injecting carrageenan in 0.9% NaCl into the plantar surface of the right hind paw of the rats.
The substances suspended in aqueous methocel solution 10 ml/kg were administered intragastrically 30 minutes before the injection of carrageenan. The control groups were given methocel solution 10 ml/kg.
Three hours after carrageenan injection the animals were killed. The hind feet were cut off and weighed. The difference in weight of the injected right paw and the uninjected left paw was called edema weight.
The effect of the substances was assessed by the edema weight expressed in percent after comparison with the control groups.

Compared with `O=C(Nc1ccccc1)c1c(O)c2ccccc2n(-c2ccccc2)c1=O` [1:3, N-1-diphenyl-1,2-dihydro-4-hydroxy-2-oxo-quinoline-3-carboxamide], `CC(C)Cn1c(=O)c(C(=O)Nc2ccccc2)c(O)c2ccccc21` [1:15, N-phenyl-1,2-dihydro-4-hydroxy-1-isobutyl-2-oxo-quinoline-3-carboxamide] is lower in change in vivo at 80 mg/kg: 41% for the first, 30% for the second.

Going from `Cn1c(=O)c(C(=O)Nc2ccccc2)c(O)c2ccc(Cl)cc21` [1:17, N-phenyl-7-chloro-1,2-dihydro-4-hydroxy-1-methyl-2-oxo-quinoline-3-carboxamide] to `Cn1c(=O)c(C(=O)Nc2ccccc2)c(O)c2cc(Cl)ccc21` [1:18, N-phenyl-6-chloro-1,2-dihydro-4-hydroxy-1-methyl-2-oxo-quinoline-3-carboxamide], the change in vivo at 80 mg/kg falls from 43% to 36%.

Going from `CNc1ccc(NC(=O)c2c(O)c3ccccc3n(C)c2=O)cc1` [1:21, N-/4-methylaminophenyl/-1,2-dihydro-4-hydroxy-1-methyl-2-oxo-quinoline-3-carboxamide] to `CCNc1ccc(NC(=O)c2c(O)c3ccccc3n(C)c2=O)cc1` [1:45, N-(4-ethylaminophenyl)-1,2-dihydro-4-hydroxy-1-methyl-2-oxo-quinoline-3-carboxamide], the change in vivo at 80 mg/kg rises from 22% to 47%.

Going from `CCN(CC)c1ccc(NC(=O)c2c(O)c3ccccc3n(C)c2=O)cc1` [1:23, N-/4-diethylaminophenyl/-1,2-dihydro-4-hydroxy-1-methyl-2-oxo-quinoline-3-carboxamide] to `COc1c(C(=O)Nc2ccc(N(C)C)cc2)c(=O)n(C)c2ccccc12` [6:3, N-(4-dimethylaminophenyl)-1,2-dihydro-4-methoxy-1-methyl-2-oxo-quinoline-3-carboxamide], the change in vivo at 80 mg/kg rises from 29% to 32%.

First: Cc1ccc2c(c1)c(O)c(C(=O)Nc1ccccc1)c(=O)n2C [1:46, N-phenyl-1,2-dihydro-1,6-dimethyl-4-hydroxy-2-oxo-quinoline-3-carboxamide]
Second: Cn1c(=O)c(C(=O)Nc2ccccc2)c(N)c2ccccc21 [10:1, N-phenyl-4-amino-1,2-dihydro-1-methyl-2-oxo-quinoline-3-carboxamide]
The change in vivo at 80 mg/kg of the first is lower: 32% for the first, 36% for the second.

First: Cn1c(=O)c(C(=O)Nc2ccccn2)c(O)c2ccccc21 [7:2, N-/2-pyridyl/-1,2-dihydro-4-hydroxy-1-methyl-2-oxo-quinoline-3-carboxamide]
Second: Cc1csc(NC(=O)c2c(O)c3ccccc3n(C)c2=O)n1 [7:3, N-/2-(4-methyl-thiazolyl)/-1,2-dihydro-4-hydroxy-1-methyl-2-oxo-quinoline-3-carboxamide]
The change in vivo at 80 mg/kg of the first is lower: 44% for the first, 47% for the second.

Going from `Cn1c(=N)c(C(=O)Nc2ccccc2)c(O)c2ccccc21` [11:1, N-phenyl-1,2-dihydro-4-hydroxy-2-imino-1-methyl-quinoline-3-carboxamide] to `O=C(Nc1cnccn1)c1c(O)c2cccc3c2n(c1=O)CC3` [14:9, N-pyrazinyl-1,2-dihydro-1,8-ethylene-4-hydroxy-2-oxo-quinoline-3-carboxamide], the change in vivo at 80 mg/kg falls from 46% to 21%.

Same assay, conditions: dose within the range 10-160 mg/kg p.o.

With `Cn1c(=O)c(C(=O)Nc2ccc(N)cc2)c(O)c2ccccc21` [8:1, N-(4-aminophenyl)-1,2-dihydro-4-hydroxy-1-methyl-2-oxo-quinoline-3-carboxamide] the “significant potentiation of the carrageenan edema” value (shortened to “significant potentiation”) was “potentiate significantly”.
With `Cc1csc(NC(=O)c2c(O)c3cc(N(C)C)cc4c3n(c2=O)CCC4)n1` [14:7, N-(4-methyl-2-thiazolyl)-1,2-dihydro-6-dimethylamino-4-hydroxy-2-oxo-1,8-trimethylene-quinoline-3-carboxamide] the “significant potentiation” value was “potentiate significantly”.
With `O=C(Nc1cccnn1)c1c(O)c2cc(O)cc3c2n(c1=O)CC3` [14:12, N-(3-pyridazinyl)-1,2-dihydro-4,6-dihydroxy-1,8-ethylene-2-oxo-quinoline-3-carboxamide] the “significant potentiation” value was “potentiate significantly”.
